Data set [1] can be described thus: pH of 1000 μg/10 mL solutions in normal saline. Conditions: 1000 μg in 10 mL normal saline, room temperature, no buffers. The data set is classed as physicochemical. As for the experimental part: (§1) Under dim light, 1000 μg of the non-labeled methyl-, adenosyl-, and cyanocobalamin-b-(4-aminobutyl)amide-DTPA, as well as 1000 μg of cyanocobalamin and DTPA (Sigma, St. Louis, Mo. 63178), were separately dissolved in 10 mL of normal saline at room temperature. Each of the five 1000 μg/10 mL samples was stored in sealed, aluminum-wrapped 10 mL vials to prevent exposure to light. No buffers were added to the solutions. The pH of the solutions, measured by a Beckman 40 pH meter (Beckman Instruments, Fullerton, Calif.): Cyanocobalamin=5.75, DTPA=3.78; cyano, methyl and adenosylcobalamin-DTPA analogues were 5.75, 6.10, and 6.19, respectively.

The test system of data set [2] is transcobalamin proteins. Put plainly: modified Unsaturated vitamin B12 Binding Capacity (UBBC) assay with patient serum. More on the design: species or system human. Particulars: non-labeled solution (1000 μg/10 mL saline, 1 μL) preincubated with serum of five patients, then Co-57-cyanocobalamin. How it is done: Louis, Mo. 63178), were separately dissolved in 10 mL of normal saline at room temperature. […] No buffers were added to the solutions. The pH of the solutions, measured by a Beckman 40 pH meter (Beckman Instruments, Fullerton, Calif.): […] To assess in vitro binding to Intrinsic Factor (IF) and Transcobalamins (TC), the intrinsic factor blocking antibody (IFBA) and Unsaturated vitamin B12 Binding Capacity (UBBC) assays were performed with serum randomly obtained from five patients being evaluated for pernicious anemia at the Mayo Clinic. The IFBA and UBBC assays were first performed for clinical purposes as previously described by V. F. Fairbanks et al., Mayo Clin. Proc., 58, 203 (1983); Intrinsic Factor Blocking Antibody (^57Co) Radioassay-Package insert, Diagnostic Products Corp.; D. Grossowicz et al., Proc. Exp. Biol., 109, 604 (1962) and C. Gottlieb et al., Blood, 25, 6 (1965). Next, the serum from the same five patients underwent modified IFBA and UBBC assays. Specifically, 1 μL of the five previously described solutions was separately incubated with purified IF or serum, to potentially saturate all IF and TC-binding sites. […] Louis, Mo. 63134) solution was added and the usual IFBA and UBBC protocols were then followed. All supernatant activity was counted for four minutes on a gamma counter (Micromedix 10/20, Huntsville, Ala. 35805). […] Comparison of cyanocobalamin-DTPA to cyanocobalamin was 66.4% (Transcobalamin II receptor imaging via radiolabeled diethylene-triaminepentaacetate cobalamin analogs, J. Nucl. Med., 38, 717-723 (1997); also described in U.S. Pat. […] A. Collins, […], Tumor Imaging Indium-111-labeled DTPA-adenosylcobalamin, Mayo Clinic Proceedings, 1999; 74; 687-691; Biodistribution of Radiolabeled Adenosylcobalamin in Humans, Review of 30 patents submitted to Mayo Clinic Proceedings). This should improve tumor-to-background ratio, which can be evaluated in murine tumor models. Attachment of either the adenosyl and methyl group as the beta ligand should improve the biological activity as it did with the cyanocobalamin mono-DTPA compound (Transcobalamin II receptor imaging via radiolabeled diethylene-triaminepentaacetate cobalamin analogs, J. Nucl. Med., 38, 717-723 (1997); also described in U.S. Pat.

Data set [3] concerns Intrinsic Factor (IF). Put plainly: modified intrinsic factor blocking antibody (IFBA) assay, competition with Co-57-cyanocobalamin. The data set is classed as binding. Particulars: for binding to IF in the IFBA assay (in words): competition with Co-57 cyanocobalamin, compared with negative reference; for averaged percent binding to IF: non-labeled solution (1000 μg/10 mL saline, 1 μL) preincubated with purified IF, then Co-57-cyanocobalamin, average over five patients' runs, estimated from counts vs Clinical run. How it is done: as §1
To assess in vitro binding to Intrinsic Factor (IF) and Transcobalamins (TC), the intrinsic factor blocking antibody (IFBA) and Unsaturated vitamin B12 Binding Capacity (UBBC) assays were performed with serum randomly obtained from five patients being evaluated for pernicious anemia at the Mayo Clinic. The IFBA and UBBC assays were first performed for clinical purposes as previously described by V. F. Fairbanks et al., Mayo Clin. Proc., 58, 203 (1983); Intrinsic Factor Blocking Antibody (^57Co) Radioassay-Package insert, Diagnostic Products Corp.; D. Grossowicz et al., Proc. Exp. Biol., 109, 604 (1962) and C. Gottlieb et al., Blood, 25, 6 (1965).
Next, the serum from the same five patients underwent modified IFBA and UBBC assays. Specifically, 1 μL of the five previously described solutions was separately incubated with purified IF or serum, to potentially saturate all IF and TC-binding sites.
After incubation for 20 minutes at room temperature and for another 20 minutes at 4° C., 500 μl of the stock (1000 μg/l) Cobalt-57-cyanocobalamin (Mallinckrodt Medical, Inc., St. Louis, Mo. 63134) solution was added and the usual IFBA and UBBC protocols were then followed. All supernatant activity was counted for four minutes on a gamma counter (Micromedix 10/20, Huntsville, Ala. 35805).
By using the counts of the Clinical run divided into the counts of the five solutions, the efficacy of binding to intrinsic factor can be estimated. The averaged percent binding of the five solutions to IF was: cyanocobalamin=92.5%; methyl-cobalamin-b-(4-aminobutyl)-amide-DTPA=63.2%; cyanocobalamin-b-(4-aminobutyl)-amide-DTPA=52.9%; adenosylcobalamin-b-(4-aminobutyl)-amide-DTPA=41.0% and 0.8% for DTPA.

The conditions of data set [4]: Deprez-Decampaneere et al. 1978; cited from earlier work.
Data set [5] has as its system transcobalamin proteins. Conditions: relative to cyanocobalamin; J. Nucl. Med. 38, 717-723 (1997), U.S. Pat. No. 5,739,313; cited from earlier work.

With `O=C(O)CN(CCN(CC(=O)O)CC(=O)O)CCN(CC(=O)O)CC(=O)O` [DTPA, diethylenetriaminepentaacetic acid], in data set [1], the “pH of the solution” value turned out to be 3.78. Besides, the “averaged percent binding to the transcobalamin proteins” value in data set [2] is reported as 3.6%. For the same compound, in data set [3], the “binding to IF in the IFBA assay (in words)” value was “does not significantly bind to IF” and the “averaged percent binding to IF” value is reported as 0.8%.
As for `COc1cccc2c1C(=O)c1c(O)c3c(c(O)c1C2=O)CC(O)(C(C)=O)CC3OC1CC(NC(=O)C(N)CC(C)C)C(O)C(C)O1` (single isomer, unassigned) [D isomer], the “hydrolysis in vivo to regenerate daunorubicin” value in data set [4] was “not”.
As to “Cyanocobalamin-b-(4-aminobutyl)amide DTPA”, the “in vitro UBBC comparison to cyanocobalamin” value in data set [5] is on record as 66.4%. For the same compound, the “pH of the solution” value in data set [1] was 5.75. Also, in data set [2], the “averaged percent binding to the transcobalamin proteins” value was found to be 66.4%. Also, in data set [3], the “averaged percent binding to IF” value is given as 52.9%.
Consider “Adenosylcobalamin-b-(4-aminobutyl)amide DTPA”, for which the “pH of the solution” value in data set [1] stood at 6.19. For the same compound, in data set [2], the “averaged percent binding to the transcobalamin proteins” value came out at 90.4%. Moreover, in data set [3], the “averaged percent binding to IF” value was 41.0%.
In the same order, the values of “Methylcobalamin-b-(4-aminobutyl)amide DTPA” are 6.10, 94.0% and 63.2%.
For cyanocobalamin, the “pH of the solution” value in data set [1] is recorded as 5.75. For the same compound, the “averaged percent binding to the transcobalamin proteins” value in data set [2] stood at 100%. In data set [3], the “binding to IF in the IFBA assay (in words)” value is given as “competitively inhibit Co-57 cyanocobalamin from binding to intrinsic factor” and the “averaged percent binding to IF” value is on record as 92.5%.
Take `COc1cccc2c1C(=O)c1c(O)c3c(c(O)c1C2=O)C[C@@](O)(C(C)=O)C[C@@H]3O[C@H]1C[C@H](NC(=O)[C@@H](N)CC(C)C)C(O)[C@H](C)O1` (stereo partly drawn) [N-(L-leucyl) daunorubicin]: the “hydrolysis in vivo to regenerate daunorubicin” value in data set [4] is recorded as “hydrolyzed in vivo to regenerate daunorubicin”.

Values taken from patent US7531162B2, “Transcobalamin receptor binding conjugates useful for treating abnormal cellular proliferation” (Mayo Foundation for Medical Education and Research, priority 2000, dated 2009).
